Results: patent publication US20170227553A1, “COMPOSITIONS AND METHODS FOR IDENTIFYING AND TREATING CONDITIONS INVOLVING HSF1 ACTIVITY” (Duke University, priority 2014, published 2017)

What was measured:
HD cell models = assay: HSF1 levels revived with CK2 inhibitors in HD cell models; type: cell-based
[1] = test system: Htt-Q74 expressing PC12 cells; assay: Hsp70 immunoblot after CK2 inhibitor pre-treatment, Htt-Q74 induction and heat shock; type: cell-based, rat; conditions: 0.5, 1 and 5 μM for 15 h prior to doxycycline induction; heat shock 42° C. 1 h, 7 h recovery
Experimental: Then cells were either not treated (−Dox) or treated with doxycycline at 1 microgram/mL during 3 days (+Dox) at 37° C. Cells were then heat shocked at 42° C. (1 h) followed by 7 h recovery (HS) at 37° C. Total protein was analyzed by SDS-PAGE and immunoblotting for Hsp70 and GAPDH. (D) Cells from CK2 kinase inhibitor treatment were analyzed by fluorescence microscopy using GFP as a marker for Htt-Q74 aggregation and the number of cells with inclusions bodies was quantified and normalized with total cell number from DIC images, as a measure of Htt-Q74 protein aggregation. Data are presented as mean±SE from three separate experiments (* P<0.05, ** P<0.01). (E) Htt-Q74 PC12 cells were incubated at 37° C. in a 96-well plate in the presence of either DMSO or the kinase inhibitor TID43 at 5 microMolar final concentration during 15 h prior to Htt-Q74 induction by doxycycline. Cells were then either not treated or treated with doxycycline at 1 microgram/mL for 3 days (+Dox) at 37° C. and then heat shocked at 42° C. (1 h) followed by 7 h recovery (HS) at 37° C. Cell viability was analyzed using the Cell Titer Glo assay (Promega) and values were expressed as percentage of viable cells compared with untreated cells at 37° C. Data are presented as means±SE from three separate experiments (* P<0.05). […]

| Compound | HSF1 levels (HD cell models) | HSF1 activation, Hsp70 expression levels (immunoblot) [1] |
| --- | --- | --- |
| O=C(O)c1c[nH]c2c(Cl)c(Cl)ccc2c1=O [Cay10577, 7,8-dichloro-1,4-dihydro-4-oxo-3-quinolinecarboxylic acid] | revived |  |
| Cc1cc(O)c2c(c1)C(=O)c1cc(O)cc(O)c1C2=O [Emodin] |  | rescue HSF1 activation, Hsp70 expression levels |
| Cn1cc(C2=C(c3ccc(Cl)cc3Cl)C(=O)NC2=O)c2ccccc21 [SB216763] | revived | rescue HSF1 activation, Hsp70 expression levels |
| Brc1c(Br)c(Br)c2[nH]cnc2c1Br [TBBz] | revived |  |
